Data published in PMC7482436, “Optopharmacology reveals a differential contribution of native GABAA receptors to dendritic and somatic inhibition using azogabazine” (Neuropharmacology, 2020).
Like-named read-outs stand apart in the source and are kept apart here.

How the values were obtained:
cerebellar granule cells [1] = experiment: Voltage clamp of GABA-mediated IPSCs in cultured cerebellar granule cells with membrane-delimited UV spot; assay type: cell-based, Sprague Dawley rats; settings: for mean IPSC amplitude recovered with UV light / IPSC frequency normalised to 100 μm^2 membrane area: 1 μM azogabazine; for mean IPSC amplitude recovered with UV light: −60 mV, n = 12
α1β2γ2L GABAARs [2] = molecular target: T1, α1β2γ2L GABAARs (Mus musculus, UniProt P62812+P63137); parameters: method as in Huckvale et al., 2016; settings: normal ambient daylight; ref Huckvale et al., 2016; cited from earlier work
T1 construct: expressed in transfected cells; host or cells: HEK293
T1 sequence (P62812 28-455): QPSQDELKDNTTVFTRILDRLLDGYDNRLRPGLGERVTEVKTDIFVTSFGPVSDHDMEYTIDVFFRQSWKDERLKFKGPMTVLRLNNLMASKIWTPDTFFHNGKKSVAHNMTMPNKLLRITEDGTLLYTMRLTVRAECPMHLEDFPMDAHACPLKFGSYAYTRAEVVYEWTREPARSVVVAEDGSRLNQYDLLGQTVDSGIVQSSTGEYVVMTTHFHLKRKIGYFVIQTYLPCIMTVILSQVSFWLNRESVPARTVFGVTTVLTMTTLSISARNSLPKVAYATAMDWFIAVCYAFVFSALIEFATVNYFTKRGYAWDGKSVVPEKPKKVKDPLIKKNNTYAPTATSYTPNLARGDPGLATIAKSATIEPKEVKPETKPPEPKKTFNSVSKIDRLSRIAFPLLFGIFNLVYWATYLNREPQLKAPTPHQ
T1 sequence (P63137 25-512 limits assumed): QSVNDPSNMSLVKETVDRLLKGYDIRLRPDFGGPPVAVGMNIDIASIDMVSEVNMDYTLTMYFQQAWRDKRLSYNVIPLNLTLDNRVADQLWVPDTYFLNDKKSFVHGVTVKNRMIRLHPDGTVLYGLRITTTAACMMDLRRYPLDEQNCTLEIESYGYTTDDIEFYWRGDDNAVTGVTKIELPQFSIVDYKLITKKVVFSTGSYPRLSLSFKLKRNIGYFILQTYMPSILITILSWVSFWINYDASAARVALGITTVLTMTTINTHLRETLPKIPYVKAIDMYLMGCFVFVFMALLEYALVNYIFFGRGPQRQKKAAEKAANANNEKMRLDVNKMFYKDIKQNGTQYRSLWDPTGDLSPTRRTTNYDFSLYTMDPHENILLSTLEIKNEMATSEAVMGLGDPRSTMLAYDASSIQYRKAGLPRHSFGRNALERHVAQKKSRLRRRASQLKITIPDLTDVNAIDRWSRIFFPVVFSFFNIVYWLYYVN
T1 sequence (P22723 39-474 partner): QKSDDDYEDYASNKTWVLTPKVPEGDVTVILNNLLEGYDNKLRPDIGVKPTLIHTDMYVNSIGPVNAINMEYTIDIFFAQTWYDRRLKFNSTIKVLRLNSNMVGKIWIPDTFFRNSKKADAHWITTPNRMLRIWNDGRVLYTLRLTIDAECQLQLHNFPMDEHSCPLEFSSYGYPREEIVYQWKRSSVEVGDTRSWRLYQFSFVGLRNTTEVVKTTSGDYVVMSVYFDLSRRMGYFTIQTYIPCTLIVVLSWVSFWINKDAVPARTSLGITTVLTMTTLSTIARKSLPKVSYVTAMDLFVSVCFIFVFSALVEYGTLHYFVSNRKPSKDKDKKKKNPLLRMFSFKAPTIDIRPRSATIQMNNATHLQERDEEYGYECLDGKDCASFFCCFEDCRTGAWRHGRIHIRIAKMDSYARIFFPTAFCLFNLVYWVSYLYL

[3] = 1H NMR of cis:trans isomer ratio and isomer stability under different light conditions; assay type: physicochemical
Protocol: For most of the study azogabazine was kept in darkness to ensure a stock of near-100% trans-isomer. Unless stated otherwise, experiments were performed in near-darkness (under red light) when making azogabazine stocks (1 mM stock solution in DMSO), and when pre-exposing stock solutions to UV or blue light using wavelength specific LEDs. Pre-exposure of azogabazine (stock) to UV or blue light was undertaken by positioning a UV (365 nm) or blue (470 nm) OptoLED (Cairn Research Ltd, Faversham, UK) 2–3 mm above a 500 μl droplet on parafilm and exposing for 2 min at maximum light intensity to ensure attainment of equilibrium between cis and trans isomers. The UV LED was operated at 1.2 A to achieve a light intensity output at the surface of the droplet of 5.3 mW. By comparison, the Blue LED was run at 0.9 A for a light intensity output of 8.1 mW at the surface of the droplet.
To physically assess the photo-conversion efficiency between the cis and trans isomers we determined the proton (^1H)-NMR spectra for azogabazine ([…]) in deuterated DMSO under different light conditions. Initially, azogabazine was retained in complete darkness for >14 days and then stored under similar dark conditions. This drove the cis:trans equilibrium almost completely towards the more thermodynamically stable trans isomer (Fig. 1C). […] By integrating the ^1H NMR spectra, long-term darkness produced ~100% of trans-azogabazine, whereas the UV (365 nm) exposure produced an equilibrium of ~85% cis to 15% trans isomers. […] Thus, switching the wavelength of light produced substantive photoisomerisation of azogabazine.
Fig. 2 Azogabazine isomerization and isomer stability. (A), Stability plot for the cis-isomer for non-dark adapted azogabazine samples exposed to different wavelengths of light: λ 365, 405, 470, 530, 565 nm, and near-infrared (NR), prior to ^1H NMR. […] A long (60 s) period of UV-exposure was needed to reach a maximal equilibrium conversion ratio of ~85 : 15% for cis: trans isomers. […] (B), The stability of a UV exposed and established cis: trans ratio is dependent on subsequent storage conditions. If the UV-exposed sample is subsequently kept in ambient light (blue line), the cis:trans ratio changes over ~ 2–4 h towards ~25% cis: 75% trans remaining stable over 10 days (dashed blue line). By contrast, the UV-exposed sample remained stable (~85% cis: 15% trans) over 24 h if subsequently kept in darkness (red line). However, over 10 days, conversion to a predominant trans-form was evident (dashed red line). Finally, when a sample which had been kept in ambient light (~25% cis: 75% trans) was then placed and stored in darkness, it remained stable over 24 h (green line) but slowly converted again to the trans form over 10 days (dashed green line).
To investigate the dynamic relationship between the two azogabazine isomers, we investigated the effect of azogabazine in solution under conditions that result in three different ratios of trans: cis isomers. These included: a dark-adapted solution (trans 100: cis 0%); one pre-exposed for 60 s to blue light (trans 75: cis 25%); and a third exposed for the same duration to UV light (trans 15: cis 85%). […] All subsequent experiments were performed in near-darkness and within 3 h after the trans: cis ratios were established to ensure the stability of the isomers during experimentation. […] The later provides assurance as to the relative time stability of the cis and trans isoforms of azogabazine.

cerebellar granule cells [4] = experiment: Current clamp of action potential firing in cultured cerebellar granule cells with membrane-delimited UV spot; assay type: cell-based, Sprague Dawley rats; settings: 1 μM azogabazine; for inhibition at 1 µM: Rattus norvegicus
Protocol: Dissociated cerebellar cultures were prepared from cerebellar tissue taken from postnatal day 4 (P4) Sprague Dawley rats. Tissue blocks were incubated in trypsin for 10 min (0.1% w/v), washed in Hanks Balanced Salt Solution (HBSS), and then triturated in DNase (0.05% w/v in 12 mM MgSO4). Cells were plated on poly-L-ornithine coated 22 mm glass coverslips in Basal Medium Eagle (BME) supplemented with 0.5% (w/v) glucose, 5 mg/l insulin, 5 mg/l transferrin, 5 mg/l selenium, 20 u/ml penicillin-G and 20 μg/ml streptomycin, 0.2 mM glutamine, 1.2 mM NaCl, and 5% (v/v) fetal calf serum. The neuronal culture was then allowed to develop for 7–10 days at 37 °C in humidified air with 5% CO2 before used for experiments.
To initiate photo-isomerization of azogabazine, optical light paths were used to convey UV laser (Obis [375 nm], Coherent Inc., Santa Clara, USA) or blue LED light (OptoLED [470 nm], Cairn Research Ltd, Faversham, U.K.) through a variable diaphragm (for setting the illuminated spot-diameter), and finally through a water-immersion objective (Nikon, NIR Apo 40×/0.8w) to the cells. The diaphragm was kept fully open for whole cell light exposure experiments and reduced to generate small spots (~8–12 μm) when exposing soma or proximal dendritic areas. The illuminated spot size and position could be adjusted during experiments. Whereas the blue LED could be operated at high power (8.1 mW) during experiments, the UV laser output was empirically adjusted to 2 mW (4% of maximum operating power) to avoid cell damage, but still sufficient to adequately azogabazine isomerization. To adjust the size and position of the illuminated spot, a 440 nm white LED pilot light and a 515 nm long-pass filter were used before switching to UV or blue light.
IPSCs from cerebellar granule cells were detected post-hoc using WinEDR 3.5.6, and analysed for frequency, amplitude, rise time and weighted decay tau using WinWCP 4.9.6. Action potentials from cerebellar granule cells were recorded under current-clamp and were similarly detected with WinEDR 3.5.6. Data were subjected to statistical analyses (ANOVA, paired and unpaired Student t-tests).
To assess neuronal excitability and GABA inhibition, current clamp recordings were performed from cultured granule cells to monitor action potential generation in the presence of 1 μM azogabazine before and after applying UV light.

α1β2γ2L GABAARs [5] = molecular target: T1, α1β2γ2L GABAARs; experiment: Whole-cell patch clamp of GABA currents, recombinant α1β2γ2L GABAARs in HEK293 cells; assay type: cell-based, murine; settings: for IC50: 10 μM GABA
[6] = UV 365 nm exposure for 60 s, equilibrium
[7] = blue light 470 nm for 60 s, photostationary state

For N=c1ccc(-c2ccc(N=Nc3ccccc3)cc2)nn1CCCC(=O)O [azogabazine], the “block of GABA-mediated IPSCs” value (cerebellar granule cells [1]; 1 μM azogabazine (saturating), dark-adapted) was “rapidly blocked all the GABA-mediated IPSCs”, the “mean IPSC amplitude recovered with UV light” value (cerebellar granule cells [1]; UV spot directed to soma) was −74 ± 16 pA and the “IPSC frequency normalised to 100 μm^2 membrane area” value (cerebellar granule cells [1]; UV spot on proximal dendrites) was 4.2 ± 0.9 Hz. For the same molecule, the “mean IPSC amplitude recovered with UV light” value (cerebellar granule cells [1]; UV spot on proximal dendritic zones) was −41 ± 7 pA, the “IPSC frequency normalised to 100 μm^2 membrane area” value (cerebellar granule cells [1]; UV spot on soma) was 1.8 ± 0.3 Hz and the IC50 (α1β2γ2L GABAARs [2]) was 22.6 nM. The pIC50 (α1β2γ2L GABAARs [2]) was 7.65 ± 0.14, the cis isomer fraction [3, 6] was ~ 85% and the trans isomer fraction [3, 6] was 15%. For the same molecule, the “time for UV-established cis:trans ratio to change towards ~25% cis: 75% trans” value ([3]; UV-exposed sample kept in ambient light) was 2 to 4 h, the cis isomer fraction [3, 7] was 25% and the trans isomer fraction [3, 7] was “approximately 75%”. The trans isomer fraction ([3]; long-term darkness, deuterated DMSO) was ~ 100%, the spike frequency (cerebellar granule cells [4]; before UV) was 8.4 ± 3.3 Hz and the burst frequency (cerebellar granule cells [4]; burst firing cells) was 1.1 ± 0.3 Hz. For the same molecule, the “individual spikes per burst” value (cerebellar granule cells [4]; burst firing cells) was 11 ± 3, the inhibition at 1 µM (cerebellar granule cells [4]; UV on proximal dendritic zones, normalised to exposed area, read-out: inhibition of individual spike generation after UV isomerization) was 50 ± 17% and the inhibition at 1 µM (cerebellar granule cells [4]; UV on proximal dendritic zones, read-out: inhibition of spike burst generation after UV isomerization) was 60 ± 9%. For the same molecule, the inhibition at 1 µM (cerebellar granule cells [4]; UV on somatic membrane, normalised to exposed area, read-out: inhibition of individual spike generation after UV isomerization) was 18 ± 3%, the inhibition at 1 µM (cerebellar granule cells [4]; UV on somatic membrane, read-out: inhibition of spike burst generation after UV isomerization) was 25 ± 3% and the “block of GABA current” value (α1β2γ2L GABAARs [5]; 1 μM azogabazine co-applied with 10 μM GABA, ambient daylight) was “near complete block”. It also gave a remaining activity at 1 µM (α1β2γ2L GABAARs [5]; HEK293, read-out: GABA current recovery during UV light exposure, % of control GABA current, 1 μM azogabazine (not dark-adapted) + 10 μM GABA, UV light, n = 8) of 64 ± 9%, a remaining activity at 1 µM (α1β2γ2L GABAARs [5]; HEK293, 1 μM azogabazine (not dark-adapted) + 10 μM GABA, blue light, n = 8, read-out: GABA current during blue light exposure, % of control) of 6 ± 3% and an IC50 (α1β2γ2L GABAARs [5]; UV pre-exposed azogabazine (365 PE, ~15% trans)) of 104 nM. The IC50 (α1β2γ2L GABAARs [5]; dark-adapted azogabazine (~100% trans), wild-type) was 21.1 nM and the “inhibitory potency of dark-adapted versus UV pre-exposed azogabazine” value (α1β2γ2L GABAARs [5]; dark-adapted higher than UV pre-exposed) was 5 fold.
